Test results taken from patent US20240190854A1, “PYRIMIDINE OR PYRIDINE DERIVATIVES USEFUL AS HCN2 MODULATORS” (King's College London, priority 2021, published 2024).
Counter-ions that a name gives are not always drawn.

What was measured:
HCN2 [1] = target: T1, HCN2 (Homo sapiens (Human), UniProt Q9UL51); experiment: HCN2 current assay using the Sophion Qube; assay type: cell-based; conditions: Sophion Qube protocol; read-out: SQ HCN2 IC50
Method: (§1) Example 126B, Using the Sophion Qube
(§2) Solutions for recording HCN currents were:
(§3) This voltage protocol was applied every 20 seconds for the duration of the experiment. Both the vehicle (0.3% DMSO) and full block (3 mM CsCl) addition periods were applied for 10 experimental sweeps each.
(§4) The current amplitudes were measured by subtracting metric A from metric B (see FIG. 2) with inhibition calculated by normalising to the vehicle addition (0.3% DMSO) and full inhibition by 3 mM CsCl in the same well.
(§5) In total, compound was applied to the well for 600 seconds.

HCN1 [2] = target: T2, HCN1 (Homo sapiens (Human), UniProt O60741); experiment: HCN1 current assay using the Sophion Qube; assay type: cell-based; conditions: Sophion Qube protocol; read-out: SQ HCN1 IC50
Method: as §1, §2, §3, §4, §5

HCN1 [3] = target: T2, HCN1; experiment: HCN1 current assay using PatchXpress 7000A; assay type: cell-based; conditions: PatchXpress protocol; read-out: PX HCN1 IC50
Method: Example 126A, Using PatchXpress 7000A
as §2
The membrane voltage was then stepped back to −30 mV for a further 8 seconds.
The peak inward current measured at the end of the pulse to −110 mV (HCN1 and HCN2) or −130 mV (HCN4) was measured and any leak current subtracted to calculate the HCN current. The HCN current amplitude was measured after each control or compound addition and normalized to the control amplitude (Control A).
All experiments were performed at room temperature (approximately 22° C.).
Each test compound concentration was applied to the cell for seven (7) minutes, at which point the next cumulative concentration was applied.

HCN4 = HCN4 (Homo sapiens (Human), UniProt Q9Y3Q4); experiment: HCN4 current assay using PatchXpress 7000A; assay type: cell-based; conditions: PatchXpress protocol; read-out: PX HCN4 IC50
Method in brief: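 Peak inward current taken at end of a −130 mV pulse, leak-subtracted, and normalized to the control amplitude. Cumulative concentrations applied for 7 min each at room temperature (approximately 22° C.) on an automated patch-clamp platform.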

HCN2 [4] = target: T1, HCN2; experiment: HCN2 current assay using PatchXpress 7000A; assay type: cell-based; conditions: PatchXpress protocol; read-out: PX HCN2 IC50
Method in brief: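 Automated patch clamp (PatchXpress 7000A) at about 22° C. HCN current taken as leak-subtracted peak inward current at the end of a step to −110 mV, with a return to −30 mV for 8 seconds. Cumulative concentrations applied 7 minutes each; amplitude normalised to control.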

hNav1.5 = hNav1.5 (Homo sapiens (Human), UniProt Q14524)
hERG channel = hERG channel (Homo sapiens (Human), UniProt Q12809); experiment: hERG assay using IonWorks Quattro; assay type: cell-based; conditions: IonWorks protocol; read-out: IW hERG IC50
MDR1 (P-glycoprotein) = MDR1 (P-glycoprotein) (Homo sapiens (Human), UniProt P08183); experiment: in vitro; conditions: dog, MDCK-MDR1, pH 7.4
Sequence of MDR1 (P-glycoprotein) (P08183 whole entry): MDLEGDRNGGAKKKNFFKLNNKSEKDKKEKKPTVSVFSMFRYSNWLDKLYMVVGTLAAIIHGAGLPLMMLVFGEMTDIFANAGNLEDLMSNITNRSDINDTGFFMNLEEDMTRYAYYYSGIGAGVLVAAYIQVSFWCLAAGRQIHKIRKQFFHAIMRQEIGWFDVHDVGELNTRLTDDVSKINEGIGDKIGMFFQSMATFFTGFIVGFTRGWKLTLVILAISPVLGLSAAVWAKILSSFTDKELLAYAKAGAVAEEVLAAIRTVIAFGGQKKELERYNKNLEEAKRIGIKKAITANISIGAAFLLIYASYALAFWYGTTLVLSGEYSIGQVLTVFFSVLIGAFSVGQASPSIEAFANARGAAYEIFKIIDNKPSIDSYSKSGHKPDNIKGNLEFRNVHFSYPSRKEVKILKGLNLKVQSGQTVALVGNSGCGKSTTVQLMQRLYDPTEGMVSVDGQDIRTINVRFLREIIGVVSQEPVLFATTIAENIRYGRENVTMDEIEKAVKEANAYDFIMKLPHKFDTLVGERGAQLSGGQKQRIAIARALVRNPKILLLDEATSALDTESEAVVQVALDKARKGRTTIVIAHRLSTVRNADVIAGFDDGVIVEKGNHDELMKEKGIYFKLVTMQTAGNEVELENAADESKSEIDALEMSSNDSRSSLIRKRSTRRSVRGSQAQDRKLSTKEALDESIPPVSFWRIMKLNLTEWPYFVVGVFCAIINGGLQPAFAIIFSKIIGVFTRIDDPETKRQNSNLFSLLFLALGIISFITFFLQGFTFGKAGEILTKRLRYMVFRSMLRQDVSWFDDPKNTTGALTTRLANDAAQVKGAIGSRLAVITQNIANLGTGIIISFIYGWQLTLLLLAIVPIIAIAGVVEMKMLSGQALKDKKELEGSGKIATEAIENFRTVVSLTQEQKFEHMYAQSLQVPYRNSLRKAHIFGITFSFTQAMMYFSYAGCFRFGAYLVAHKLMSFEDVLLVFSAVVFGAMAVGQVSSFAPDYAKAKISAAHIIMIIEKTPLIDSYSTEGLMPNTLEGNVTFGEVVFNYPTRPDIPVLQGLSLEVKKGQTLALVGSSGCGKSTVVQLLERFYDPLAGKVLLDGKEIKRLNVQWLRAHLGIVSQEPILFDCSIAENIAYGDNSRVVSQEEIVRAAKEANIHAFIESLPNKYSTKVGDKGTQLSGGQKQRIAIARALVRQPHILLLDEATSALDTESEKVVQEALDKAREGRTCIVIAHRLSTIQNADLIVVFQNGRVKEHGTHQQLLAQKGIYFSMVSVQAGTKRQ
Method: Test compounds were added (10 μM, 0.1% DMSO final, n=2) to donor compartments of the Transwell plate assembly in assay buffer (Hanks balanced salt solution supplemented with 25 mM HEPES, adjusted to pH 7.4) for both apical to basolateral (A>B) and basolateral to apical (B>A) measurements. A parallel series of incubations were performed in the presence of the transporter inhibitor elacridar (5 μM) which was added to both compartments in the transwell plate. Incubations were performed at 37° C., with samples removed from both donor and acceptor chambers at T=0 and 1 hour for recovery assessment and compound analysed by mass spectrometry (LC-MS/MS), including an analytical internal standard.
Apparent permeability (Papp) values were determined from the relationship:
Where V is the volume of each Transwell compartment (apical 125 μL, basolateral 600 μL), and concentrations are the relative MS responses for compound (normalized to internal standard) in the donor chamber before incubation and acceptor chamber at the end of the incubation.
Area=area of cells exposed for drug transfer (0.33 cm2).
Efflux ratios (Papp B>A/Papp A>B) were calculated for each compound from the mean Papp values in each direction. […] The efflux ratios were also calculated in the same way from the runs carried out in the presence of the inhibitor. The net flux is the ratio of the efflux in the absence of inhibitor to that in the presence of inhibitor.
Lucifer Yellow (LY) was added to the apical buffer in all wells to assess viability of the cell layer.
Compound recovery from the wells was determined from MS responses (normalized to internal standard) in donor and acceptor chambers at the end of incubation compared to response in the donor chamber pre-incubation.

Sequence of hERG channel (Q12809 whole entry): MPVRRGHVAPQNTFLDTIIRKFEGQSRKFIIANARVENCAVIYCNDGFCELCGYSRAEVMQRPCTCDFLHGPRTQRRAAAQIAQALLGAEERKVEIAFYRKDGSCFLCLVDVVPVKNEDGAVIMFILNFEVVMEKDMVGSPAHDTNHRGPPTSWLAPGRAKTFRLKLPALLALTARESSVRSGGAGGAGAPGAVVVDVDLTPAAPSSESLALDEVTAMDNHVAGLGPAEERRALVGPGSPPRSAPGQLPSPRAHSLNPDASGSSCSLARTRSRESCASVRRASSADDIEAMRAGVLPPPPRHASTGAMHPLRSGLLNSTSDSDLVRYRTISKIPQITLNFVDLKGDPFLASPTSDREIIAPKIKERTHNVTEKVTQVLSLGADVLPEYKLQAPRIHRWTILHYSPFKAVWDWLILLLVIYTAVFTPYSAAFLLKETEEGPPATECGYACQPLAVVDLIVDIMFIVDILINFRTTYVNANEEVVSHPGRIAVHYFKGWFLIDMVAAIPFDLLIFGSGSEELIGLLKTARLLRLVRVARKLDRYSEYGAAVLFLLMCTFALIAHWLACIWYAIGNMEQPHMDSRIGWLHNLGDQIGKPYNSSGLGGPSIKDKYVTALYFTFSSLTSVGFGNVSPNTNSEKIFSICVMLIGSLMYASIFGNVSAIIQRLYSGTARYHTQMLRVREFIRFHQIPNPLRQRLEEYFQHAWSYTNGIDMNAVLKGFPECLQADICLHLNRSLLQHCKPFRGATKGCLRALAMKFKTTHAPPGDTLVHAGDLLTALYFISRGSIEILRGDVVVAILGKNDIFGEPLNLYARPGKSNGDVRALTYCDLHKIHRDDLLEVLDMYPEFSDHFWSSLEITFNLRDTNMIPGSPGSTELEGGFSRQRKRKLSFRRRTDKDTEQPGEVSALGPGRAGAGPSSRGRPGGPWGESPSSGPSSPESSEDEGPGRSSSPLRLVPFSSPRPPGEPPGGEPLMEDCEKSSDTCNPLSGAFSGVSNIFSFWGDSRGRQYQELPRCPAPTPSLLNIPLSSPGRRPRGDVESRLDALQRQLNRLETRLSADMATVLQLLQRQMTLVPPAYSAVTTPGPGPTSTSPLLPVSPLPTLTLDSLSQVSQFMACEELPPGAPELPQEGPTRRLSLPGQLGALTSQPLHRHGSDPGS
T1 sequence (Q9UL51 whole entry): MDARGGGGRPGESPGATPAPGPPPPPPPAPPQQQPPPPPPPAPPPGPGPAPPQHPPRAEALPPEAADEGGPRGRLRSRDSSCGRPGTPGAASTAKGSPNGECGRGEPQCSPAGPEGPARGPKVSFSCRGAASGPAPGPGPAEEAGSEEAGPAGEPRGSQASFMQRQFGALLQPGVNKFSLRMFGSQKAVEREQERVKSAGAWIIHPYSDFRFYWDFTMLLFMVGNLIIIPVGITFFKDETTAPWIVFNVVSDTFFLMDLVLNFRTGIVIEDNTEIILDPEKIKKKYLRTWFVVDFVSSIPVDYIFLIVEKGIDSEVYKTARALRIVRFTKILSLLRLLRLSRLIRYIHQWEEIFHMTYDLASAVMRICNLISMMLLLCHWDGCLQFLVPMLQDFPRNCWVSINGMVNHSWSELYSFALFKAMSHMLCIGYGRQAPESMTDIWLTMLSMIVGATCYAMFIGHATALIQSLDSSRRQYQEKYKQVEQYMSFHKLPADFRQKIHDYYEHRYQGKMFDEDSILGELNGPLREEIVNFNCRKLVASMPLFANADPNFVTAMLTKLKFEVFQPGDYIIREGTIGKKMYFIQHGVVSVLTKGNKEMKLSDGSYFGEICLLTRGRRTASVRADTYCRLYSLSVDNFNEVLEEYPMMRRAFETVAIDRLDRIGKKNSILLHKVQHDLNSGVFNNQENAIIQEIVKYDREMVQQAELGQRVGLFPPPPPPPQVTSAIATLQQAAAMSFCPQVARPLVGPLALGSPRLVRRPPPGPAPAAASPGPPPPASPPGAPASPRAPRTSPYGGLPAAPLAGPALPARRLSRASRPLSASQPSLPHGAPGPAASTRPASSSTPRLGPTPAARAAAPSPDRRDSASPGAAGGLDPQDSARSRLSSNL
Sequence of HCN4 (Q9Y3Q4 whole entry, species assumed): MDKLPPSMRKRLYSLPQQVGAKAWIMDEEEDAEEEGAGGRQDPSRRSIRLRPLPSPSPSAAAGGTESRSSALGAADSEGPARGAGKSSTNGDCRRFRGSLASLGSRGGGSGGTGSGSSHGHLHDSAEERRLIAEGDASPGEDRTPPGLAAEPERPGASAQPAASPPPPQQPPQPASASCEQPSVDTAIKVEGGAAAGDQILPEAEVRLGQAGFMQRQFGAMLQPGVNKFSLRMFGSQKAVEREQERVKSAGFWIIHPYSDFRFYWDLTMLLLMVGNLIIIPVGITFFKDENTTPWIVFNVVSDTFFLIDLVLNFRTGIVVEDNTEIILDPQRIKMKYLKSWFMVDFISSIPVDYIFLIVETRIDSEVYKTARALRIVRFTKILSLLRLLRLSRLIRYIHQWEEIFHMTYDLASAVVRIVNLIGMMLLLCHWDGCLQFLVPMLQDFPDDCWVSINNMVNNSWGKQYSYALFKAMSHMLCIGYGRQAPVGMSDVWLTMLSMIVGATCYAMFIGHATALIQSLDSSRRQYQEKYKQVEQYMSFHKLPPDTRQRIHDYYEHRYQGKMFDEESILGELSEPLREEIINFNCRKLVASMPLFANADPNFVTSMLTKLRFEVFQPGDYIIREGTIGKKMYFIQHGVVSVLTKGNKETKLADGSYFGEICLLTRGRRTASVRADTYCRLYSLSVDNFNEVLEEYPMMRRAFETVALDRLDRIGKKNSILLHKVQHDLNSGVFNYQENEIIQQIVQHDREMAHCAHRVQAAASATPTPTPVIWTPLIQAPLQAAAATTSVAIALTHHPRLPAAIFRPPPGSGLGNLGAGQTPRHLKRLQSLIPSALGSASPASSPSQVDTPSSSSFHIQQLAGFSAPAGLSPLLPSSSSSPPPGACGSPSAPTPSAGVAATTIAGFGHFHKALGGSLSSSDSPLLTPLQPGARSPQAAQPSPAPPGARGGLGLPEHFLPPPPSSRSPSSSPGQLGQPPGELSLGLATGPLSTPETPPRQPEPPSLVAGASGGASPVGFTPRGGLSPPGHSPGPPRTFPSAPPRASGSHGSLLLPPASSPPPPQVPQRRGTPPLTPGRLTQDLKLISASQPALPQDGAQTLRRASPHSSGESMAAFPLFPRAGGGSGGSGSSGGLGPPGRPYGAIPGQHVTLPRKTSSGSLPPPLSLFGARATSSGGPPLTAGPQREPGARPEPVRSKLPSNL

SMILES	IC50 (HCN2 [1]) [µM]	IC50 (HCN1 [2]) [µM]	IC50 (HCN1 [3]) [µM]	IC50 (HCN4) [µM]	IC50 (HCN2 [4]) [µM]	IC50 (hNav1.5) [µM]	IC50 (hERG channel) [µM]	efflux ratio at 1 h, 10 μM (MDR1 (P-glycoprotein))
CS(=O)(=O)c1ccc(F)c(C[C@H](N)c2ccccc2-c2noc3cc(C(F)(F)F)ccc23)n1 [Example 10, (S)-2-(3-Fluoro-6-methylsulfonylpyridine-2-yl)-1-[2-(6-trifluoromethylbenzo[d]isoxazol-3-yl)phenyl]ethan-1-amine hydrochloride]	17.2	–	–	–	–	–	–	–
Cn1nc(-c2ccccc2[C@@H](N)Cc2ccccn2)c2ccccc21 [Example 60, (S)-1-[2-(1-Methyl-1H-indazole-3-yl)phenyl]-2-(pyridine-2-yl)ethan-1-amine hydrochloride]	–	–	> 30	> 30	3.1	9.2	0.32	–
NC(=O)c1ccc(F)c(C[C@H](N)c2ccccc2-c2noc3ccccc23)n1 [Example 72, (S)-6-{2-Amino-2-[2-(benzo[d]isoxazol-3-yl)phenyl]ethyl}-5-fluoropyridine-2-carboxamide formate]	–	–	1	10.3	1.2	18.6	20.9	11.3
CN(C)C(=O)c1ccc(F)c(C[C@H](N)c2ccccc2-c2noc3ccccc23)n1 [Example 74, (S)-6-{2-Amino-2-[2-(benzo[d]isoxazol-3-yl)phenyl]ethyl}-5-fluoro-N,N-dimethylpyridin-2-carboxamide hydrochloride]	–	–	4.6	20.9	1.8	11.4	9.9	16.7
CCc1ccc(C)c(C[C@H](N)c2ccccc2-c2noc3ccccc23)n1 [Example 9, (S)-1-[2-(Benzo[d]isoxazol-3-yl)phenyl]-2-(6-ethyl-3-methylpyridine-2-yl)ethan-1-amine hydrochloride]	–	–	0.37	1.7	0.26	–	–	–
N#Cc1cccc(C[C@H](N)c2ccccc2-c2noc3ccccc23)n1 [Example 116, (S)-1-[2-(Benzo[d]isoxazol-3-yl)phenyl]-2-(6-cyanopyridine-2-yl)ethan-1-amine hydrochloride]	–	–	3.4	13.5	0.7	11.1	10.3	1.1

The next lines start with results.

IC50 (HCN2 [1]) [µM]	IC50 (HCN1 [2]) [µM]	SMILES	IC50 (HCN1 [3]) [µM]	IC50 (HCN4) [µM]	IC50 (HCN2 [4]) [µM]	IC50 (hNav1.5) [µM]	IC50 (hERG channel) [µM]	efflux ratio at 1 h, 10 μM (MDR1 (P-glycoprotein))
1.4	–	N#Cc1ccc(F)c(C[C@H](N)c2ccccc2-c2noc3cc(Br)ccc23)n1 [Example 27, (S)-2-{2-Amino-2-[2-(6-bromobenzo[d]isoxazol-3-yl)phenyl]ethyl}-3-fluoropyridine-6-carbonitrile]	–	–	–	–	–	–
2	3	N[C@@H](Cc1nc(Br)ccc1F)c1ccccc1-c1noc2cc(Br)ccc12 [Example 16, (S)-2-(6-Bromo-3-fluoropyridine-2-yl)-1-[2-(6-bromobenzo[d]isoxazol-3-yl)phenyl]-ethan-1-amine]	–	–	–	–	–	–
> 30	–	CC(C)S(=O)(=O)c1ccc(F)c(C[C@H](N)c2ccccc2-c2noc3cc(Cl)ccc23)n1 [Example 25, (S)-1-[2-(6-Chlorobenzo[d]isoxazol-3-yl)phenyl]-2-(3-fluoro-6-isopropyisulfonylpyridin-2-yl)ethan-1-amine hydrochloride]	–	–	–	–	–	–
2.5	5.3	CS(=O)(=O)c1ccc(F)c(C[C@H](N)c2ccccc2-c2noc3cc(Br)ccc23)n1 [Example 21, (S)-1-[2-(6-Bromobenzo[d]isoxazol-3-yl)phenyl]-2-(3-Fluoro-6-methylsulfonylpyridin-yl)ethan-1-amine hydrochloride]	–	–	–	–	–	–
1.2	5.1	N[C@@H](Cc1nc(Br)ccc1F)c1ccccc1-c1noc2cc(F)ccc12 [Example 15, (S)-2-(6-Bromo-3-fluoropyridine-2-yl)-1-[2-(6-fluorobenzo[d]isoxazol-3-yl)phenyl]-ethan-1-amine hydrochloride]	–	–	–	–	–	–
1	–	Cc1ccc(C#N)nc1C[C@H](N)c1ccccc1-c1noc2cc(Br)ccc12 [Example 28, (S)-2-{2-Amino-2-[2-(6-bromobenzo[d]isoxazol-3-yl)phenyl]ethyl}-3-methylpyridine-6-carbonitrile]	–	–	–	–	–	–
